{"source": "patent US20240092784A1", "about": "“CONDENSED HETEROCYCLIC COMPOUND” (NISSAN CHEMICAL CORPORATION, priority 2020, published 2024)", "note": "Counter-ions that a name gives are not always drawn.", "data": [{"target": "human SPR (Homo sapiens (Human), UniProt P35270)", "sequence (P35270 whole entry)": "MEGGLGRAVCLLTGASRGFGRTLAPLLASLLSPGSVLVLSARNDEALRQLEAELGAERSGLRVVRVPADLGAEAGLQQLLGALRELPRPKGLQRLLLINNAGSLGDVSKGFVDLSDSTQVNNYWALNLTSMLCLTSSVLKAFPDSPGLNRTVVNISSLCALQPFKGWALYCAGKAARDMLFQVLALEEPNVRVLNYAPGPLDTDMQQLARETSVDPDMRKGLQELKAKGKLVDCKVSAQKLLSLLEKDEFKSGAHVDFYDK", "test": "Evaluation Example 2: Measurement of human SPR inhibitory activity (seven concentrations, sepiapterin absorbance at 420 nm)", "format": "biochemical", "conditions": "Evaluation Example 2, seven concentrations 0.14 nM to 100 nM, 240 minutes at room temperature, read-out: IC50", "experimental": "(§1) Human SPR was prepared as described below. The full-length human SPR (1-261) cDNA was purchased from Eurofins Genomics as an artificially synthesized plasmid containing a DNA sequence optimized for the E. coli expression system so that the sequence of the expressed protein after transcription and translation matches the sequence described in UniprotKB (P35270).\n(§2) Linearized insert and vector were prepared by PCR using primers designed for amplification of human SPR cDNA and primers designed to contain the thrombin recognition sequence of pET28a (Novagen) and a polyhistidine tag. Cloning was performed using In-Fusion (registered trademark) HD Cloning Kit (TaKaRa) to thereby construct a human SPR expression plasmid. The resultant human SPR expression plasmid was transformed into BL21 (DE3) competent cells (INVITROGEN).\n(§3) The cells were inoculated into LB medium (1% triptone, 0.5% yeast extract, 1% sodium chloride) containing […] of kanamycin, and then precultured at 37° C. overnight. The precultured cells were inoculated into TB medium (1.2% triptone, 2.4% yeast extract, 9.4% dipotassium hydrogen phosphate, 2.2% potassium dihydrogen phosphate, 0.8% glycerin) containing […] of kanamycin, and the cultured at 37° C., to thereby induce SPR expression with 0.5 mM IPTG for four hours. After the induction, the cells were collected by centrifugation at 6,000 G for 30 minutes and washed with PBS, and the washing was discarded. The washed cells were suspended in buffer solution A (20 mM MES, pH 6.5, 100 mM sodium chloride, 1 mM DTT, 5 mM imidazole). Subsequently, the cell suspension was subjected to ultrasonic treatment to thereby homogenize the cells. The cell homogenate was clarified by centrifugation at 30,000 G for 60 minutes and then filtered with a […]. The filtrate was allowed to pass through HisTrapFF 5 mL column (GE Healthcare). The resin was washed with buffer A, and then gradient elution was performed with buffer B (20 mM MES, pH 6.5, 100 mM sodium chloride, 1 mM DTT, 500 mM imidazole). Thrombin was added to a fraction containing the SPR protein, and the mixture was dialyzed in buffer A overnight, to thereby cleave the tag. After removal of the thrombin by with Benzamidine Sepharose 4 FF (GE Healthcare), the resultant product was allowed to pass through the HisTrapFF 5 mL column, to thereby remove the tag, followed by concentration with Amicon Ultra 10,000 NMWL (Merck Millipore). The concentrate was purified by gel filtration using HiLoad 16/60 Superdex 75 pg (GE Healthcare) equilibrated with buffer C (20 mM MES, pH 6.5, 100 mM sodium chloride, 1 mM DTT). The fraction containing SPR protein was concentrated and then cryopreserved at −80° C.\n(§4) Human SPR inhibitory activity was measured by using a 384-well low adsorption clear plate (Greiner) with buffer D containing 100 mM Tris-HCl (pH 7.5) (Thermo Fisher Scientific) and 0.01% bovine serum albumin (Sigma). A compound was diluted with DMSO to achieve seven different final concentrations; i.e., 0.14 nM, 0.41 nM, 1.23 nM, 3.7 nM, 11.1 nM, 33 nM, and 100 nM. A 1.5 μL aliquot of the compound solution prepared with DMSO was diluted with 250 μL of buffer D, and the thus-diluted solution was dispensed into the 384-well plate at 20 μL/well. Thereafter, human SPR was diluted with buffer D to 150 ng/mL and then dispensed into the 384-well plate at 20 μL/well. Subsequently, 40 μL of ultrapure water containing 120 μM sepiapterin (produced by the method described in L-Sepiapterin, Heterocycles, 2008, 76, 1329-1335 and WO 2013/168693) and 160 μM NADPH (Nacalai) was added to each well, and then reaction was initiated. The reaction mixture was incubated at room temperature for 240 minutes. Thereafter, in order to determine the amount of sepiapterin, the absorbance at 420 nm was measured by applying the 384-well plate to EnSpire multimode plate reader (Perkin Elmer). The percent inhibition (%) of human SPR by the test compound was calculated by the following formula.", "units": {"IC50": "nM"}, "values": [{"smiles": "CCC(N)c1cc2n(CC(C)(C)C)c(=O)c(C(=O)NC3CC3)c(O)n2n1", "note": "(racemic) [Synthesis Example 280, 2-(1-Aminopropyl)-N-cyclopropyl-7-hydroxy-4-neopentyl-5-oxo-4,5-dihydropyrazolo[1,5-a]pyrimidine-6-carboxamide hydrochloride (racemate)]", "IC50": 5.64}, {"smiles": "Cc1nn2c(O)c(C(=O)NC3CC3)c(=O)n(CC(C)C)c2c1/C=C/C(=O)N1C[C@@H](F)[C@H](F)C1", "note": "(racemic) [Synthesis Example 649, N-Cyclopropyl-3-((E)-3-(trans-3,4-difluoropyrrolidin-1-yl)-3-oxoprop-1-en-1-yl)-7-hydroxy-4-isobutyl-2-methyl-5-oxo-4,5-dihydropyrazolo[1,5-a]pyrimidine-6-carboxamide]", "IC50": 0.73}, {"smiles": "CC(C)Cn1c(=O)c(C(=O)NC2CC2)c(O)n2ncc(/C=C/C(=O)N3CCC(C)(O)C3)c12", "note": "(racemic) [compound 500, (E)-N-Cyclopropyl-7-hydroxy-3-(3-(3-hydroxy-3-methylpyrrolidin-1-yl)-3-oxoprop-1-en-1-yl)-4-isobutyl-5-oxo-4,5-dihydropyrazolo[1,5-a]pyrimidine-6-carboxamide (racemate)]", "IC50": 0.88}, {"smiles": "CC(C)Cn1c(=O)c(C(=O)NC2CC2)c(O)n2ncc(/C=C/C(=O)N3CCC(F)(F)CC3C)c12", "note": "(racemic) [compound 546, (E)-N-Cyclopropyl-3-(3-(4,4-difluoro-2-methylpiperidin-1-yl)-3-oxoprop-1-en-1-yl)-7-hydroxy-4-isobutyl-5-oxo-4,5-dihydropyrazolo[1,5-a]pyrimidine-6-carboxamide (racemate)]", "IC50": 0.77}, {"smiles": "CC(C)Cn1c(=O)c(C(=O)NC2CC2)c(O)n2ncc(/C=C/C(=O)N3CCC4CC43)c12", "note": "(racemic) [compound 588, (E)-3-(3-(2-Azabicyclo[3.1.0]hexan-2-yl)-3-oxoprop-1-en-1-yl)-N-cyclopropyl-7-hydroxy-4-isobutyl-5-oxo-4,5-dihydropyrazolo[1,5-a]pyrimidine-6-carboxamide (racemate)]", "IC50": 1.59}, {"smiles": "CC(C)Cn1c(=O)c(C(=O)NC2CC2)c(O)n2ncc(/C=C/C(=O)N3CCCC3C3CC3)c12", "note": "(racemic) [compound 593, (E)-N-Cyclopropyl-3-(3-(2-cyclopropylpyrrolidin-1-yl)-3-oxoprop-1-en-1-yl)-7-hydroxy-4-isobutyl-5-oxo-4,5-dihydropyrazolo[1,5-a]pyrimidine-6-carboxamide (racemate)]", "IC50": 1.48}, {"smiles": "CC(C)Cn1c(=O)c(C(=O)NC2CC2)c(O)n2ncc(/C=C/C(=O)N3CCC(C(F)(F)F)C3)c12", "note": "(racemic) [compound 595, (E)-N-Cyclopropyl-7-hydroxy-4-isobutyl-5-oxo-3-(3-oxo-3-(3-(trifluoromethyl)pyrrolidin-1-yl)prop-1-en-1-yl)-4,5-dihydropyrazolo[1,5-a]pyrimidine-6-carboxamide (racemate)]", "IC50": 1.54}, {"smiles": "CC(C)Cn1c(=O)c(C(=O)NC2CC2)c(O)n2ncc(/C=C/C(=O)N3CCC(C(F)F)C3)c12", "note": "(racemic) [compound 596, (E)-N-Cyclopropyl-3-(3-(3-(difluoromethyl)pyrrolidin-1-yl)-3-oxoprop-1-en-1-yl)-7-hydroxy-4-isobutyl-5-oxo-4,5-dihydropyrazolo[1,5-a]pyrimidine-6-carboxamide (racemate)]", "IC50": 0.96}, {"smiles": "Cc1nn2c(O)c(C(=O)NC3CC3)c(=O)n(CC(C)C)c2c1/C=C/C(=O)N1CCC2CC21", "note": "(racemic) [compound 609, (E)-3-(3-(2-Azabicyclo[3.1.0]hexan-2-yl)-3-oxoprop-1-en-1-yl)-N-cyclopropyl-7-hydroxy-4-isobutyl-2-methyl-5-oxo-4,5-dihydropyrazolo[1,5-a]pyrimidine-6-carboxamide (racemate)]", "IC50": 1.23}, {"smiles": "COC(C)Cn1c(=O)c(C(=O)NC2CC2)c(O)n2ncc(/C=C/C(=O)N3CCOCC3)c12", "note": "(single isomer, unassigned) [Synthesis Example 384, (E)-N-Cyclopropyl-7-hydroxy-4-(2-methoxypropyl)-3-(3-morpholino-3-oxoprop-1-en-1-yl)-5-oxo-4,5-dihydropyrazolo[1,5-a]pyrimidine-6-carboxamide]", "IC50": 0.82}, {"smiles": "COC(C)Cn1c(=O)c(C(=O)NC2CC2)c(O)n2ncc(/C=C/C(=O)N3CCOCC3)c12", "note": "(single isomer, unassigned) [Synthesis Example 385, (E)-N-Cyclopropyl-7-hydroxy-4-(2-methoxypropyl)-3-(3-morpholino-3-oxoprop-1-en-1-yl)-5-oxo-4,5-dihydropyrazolo[1,5-a]pyrimidine-6-carboxamide]", "IC50": 0.83}, {"smiles": "CC(Cn1c(=O)c(C(=O)NC2CC2)c(O)n2ncc(/C=C/C(=O)N3CCOCC3)c12)C(F)(F)F", "note": "(single isomer, unassigned) [Synthesis Example 388, (E)-N-Cyclopropyl-7-hydroxy-3-(3-morpholino-3-oxoprop-1-en-1-yl)-5-oxo-4-(3,3,3-trifluoro-2-methylpropyl)-4,5-dihydropyrazolo[1,5-a]pyrimidine-6-carboxamide]", "IC50": 1.53}, {"smiles": "CC(Cn1c(=O)c(C(=O)NC2CC2)c(O)n2ncc(/C=C/C(=O)N3CCOCC3)c12)C(F)(F)F", "note": "(single isomer, unassigned) [Synthesis Example 389, (E)-N-Cyclopropyl-7-hydroxy-3-(3-morpholino-3-oxoprop-1-en-1-yl)-5-oxo-4-(3,3,3-trifluoro-2-methylpropyl)-4,5-dihydropyrazolo[1,5-a]pyrimidine-6-carboxamide]", "IC50": 0.95}, {"smiles": "CC(C)Cn1c(=O)c(C(=O)NC2CC2)c(O)n2ncc(/C=C/C(=O)N3CCOCC3CC(F)(F)F)c12", "note": "(single isomer, unassigned) [compound 550, (E)-N-Cyclopropyl-7-hydroxy-4-isobutyl-5-oxo-3-(3-oxo-3-(3-(2,2,2-trifluoroethyl)morpholino)prop-1-en-1-yl)-4,5-dihydropyrazolo[1,5-a]pyrimidine-6-carboxamide (Isomer]", "IC50": 0.79}]}, {"target": "human SPR (Homo sapiens (Human), UniProt P35270)", "test": "Evaluation Example 2: Measurement of human SPR inhibitory activity (seven concentrations, sepiapterin absorbance at 420 nm)", "format": "biochemical", "conditions": "sepiapterin absorbance, Table 41, read-out: concentration at 50% inhibition of human SPR (IC50)", "experimental": "as §1, §2, §3, §4", "units": {"IC50": "nM"}, "values": [{"smiles": "CC(C)Cn1c(=O)c(C(=O)NC2CC2)c(O)n2ncc(/C=C/C(=O)N3C[C@@H](F)[C@H](F)C3)c12", "note": "(racemic) [Synthesis Example 723, N-Cyclopropyl-3-((E)-3-(trans-3,4-difluoropyrrolidin-1-yl)-3-oxoprop-1-en-1-yl)-7-hydroxy-4-isobutyl-5-oxo-4,5-dihydropyrazolo[1,5-a]pyrimidine-6-carboxamide (racemate)]", "IC50": 0.69}, {"smiles": "Cc1nn2c(O)c(C(=O)NC3CC3)c(=O)n(CC(C)C)c2c1/C=C/C(=O)N1C[C@@H](F)[C@H](F)C1", "note": "(single isomer, unassigned; isomer a) [Synthesis Example 755, N-Cyclopropyl-3-((E)-3-(trans-3,4-difluoropyrrolidin-1-yl)-3-oxoprop-1-en-1-yl)-7-hydroxy-4-isobutyl-2-methyl-5-oxo-4,5-dihydropyrazolo[1,5-a]pyrimidine-6-carboxamide (Isomer A)]", "IC50": 0.61}, {"smiles": "Cc1nn2c(O)c(C(=O)NC3CC3)c(=O)n(CC(C)C)c2c1/C=C/C(=O)N1C[C@@H](F)[C@H](F)C1", "note": "(single isomer, unassigned; isomer b) [Synthesis Example 756, N-Cyclopropyl-3-((E)-3-(trans-3,4-difluoropyrrolidin-1-yl)-3-oxoprop-1-en-1-yl)-7-hydroxy-4-isobutyl-2-methyl-5-oxo-4,5-dihydropyrazolo[1,5-a]pyrimidine-6-carboxamide (Isomer B)]", "IC50": 0.71}]}]}
